{"source": "patent US20040241225A1", "about": "“Modulation of vitamin storage” (priority 2001, published 2004)", "key": {"[1]": {"format": "physicochemical", "procedure": "An extraction method was developed which gave the maximum recovery of TP. The stability of TP to the extraction methodology was tested by subjecting pure TP to the extraction protocol, virtually 100% recovery was obtained."}, "[2]": {"assay": "Solubility of α-tocopheryl phosphate", "format": "physicochemical"}, "[3]": {"assay": "Liver TP level 24 h after a single dose of TP or tocopheryl acetate, quantitated by ESMS", "settings": "rat, 24 h after administration"}}, "data": [{"substance": "α-tocopheryl phosphate [TP]", "values": [{"measurement": "resistance to hydrolysis", "setting": "[1]; alkaline and acid hydrolysis conditions of standard α-tocopherol extraction procedures", "result": "resistant to all of the alkaline and acid hydrolysis conditions"}, {"measurement": "resistance to oxidation", "setting": "[1]; conditions of the standard colorimetric α-tocopherol analysis", "result": "resistant to oxidation"}, {"measurement": "cleavage of the phosphate bond", "setting": "[1]; refluxing under strongly alkaline or acidic conditions in excess of 24 hours", "result": "does not lead to any cleavage of the phosphate bond"}, {"measurement": "solubility in water", "setting": "[2]; high pH", "result": "soluble"}, {"measurement": "solubility in organic solvents", "setting": "[2]; low pH", "result": "soluble"}, {"measurement": "liver TP", "setting": "[3]; i.v., single dose 3 mg/kg", "result": 17, "unit": "ug ug/gm"}, {"measurement": "liver TP", "setting": "[3]; i.v., single dose 10 mg/kg", "result": 24, "unit": "ug ug/gm"}, {"measurement": "liver TP", "setting": "[3]; i.v., single dose 30 mg/kg", "result": 28, "unit": "ug ug/gm"}, {"measurement": "liver TP", "setting": "[3]; i.v., single dose 100 mg/kg", "result": 27, "unit": "ug ug/gm"}, {"measurement": "liver TP", "setting": "[3]; oral, single dose 10 mg/kg", "result": 19.18, "unit": "ug ug/gm"}, {"measurement": "liver TP", "setting": "[3]; oral, single dose 30 mg/kg", "result": 18.35, "unit": "ug ug/gm"}]}]}
